Results reported in article PMC5743070 (The Journal of Biological Chemistry, 2017).
Values joined by “and” are separate entries in the source; they are usually repeats but may differ in a detail not shown here. Equal entries are not always repeated. Where two headings read alike, the source gives them in different places.

Key:
TTD (UHRF1_121–286) [1] = molecular target: T1, TTD (UHRF1_121–286) (Homo sapiens, UniProt Q96T88); assay: ITC of BPC binding to TTD
T1 construct: UHRF1_121–286 corresponding to the TTD; made in house
T1 sequence (Q96T88 121-286): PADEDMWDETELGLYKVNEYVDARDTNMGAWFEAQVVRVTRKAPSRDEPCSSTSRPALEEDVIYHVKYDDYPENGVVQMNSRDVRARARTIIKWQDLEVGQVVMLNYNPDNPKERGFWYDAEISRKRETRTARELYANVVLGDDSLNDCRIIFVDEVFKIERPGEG
Procedure: For ITC measurements of TTD–PHD (UHRF1_126–366) interaction with H3K9me3, samples were dialyzed into a buffer containing 10 mM HEPES (pH 7.5), 150 mM NaCl, 1 mM TCEP, and 30 μM ZnCl2. […] A preliminary peptide injection of 0.06 μl was followed by subsequent 2-μl injections into the sample cell containing 167 μl of 50 μM TTD–PHD. Where indicated, 1.5 mM BPC or 1.5 mM PBR peptide was included in the injection syringe and sample cell. The reported KD and n values are based on the average from two measurements. For ITC measurements of TTD (UHRF1_121–286) interaction with BPC, the protein was buffered in 20 mM Tris (pH 7.4), 50 mM NaCl, and 5% DMSO. BPC was brought to a concentration of 2.5 mM and injected into the sample cell containing 40 μM protein. The data were acquired on a Nano ITC from TA Instruments at 25 °C and fitted with an independent-binding site model using NanoAnalyze software (v3.7.0). […]
Binding of BPC in the groove of TTD.
labeled (at the N-terminus) H3K9me3(1-25) peptide, (B) ITC, and (C) DSF. […]

TTD (UHRF1_121–286) [2] = molecular target: T1, TTD (UHRF1_121–286); assay: HSQC competition of BPC and linker peptide on TTD; format: binding; conditions: BPC 2.4 mM, linker peptide 3.0 mM, 5% DMSO; I211, I212 and E281 resonances in HSQC
Procedure: NMR samples were buffered in 20 mM sodium phosphate (pH 7.5), 150 mM NaCl, 5 mM DTT, 5 mM β-mercaptoethanol, 2 mM TCEP, and 10 μM ZnSO4. The protein concentration was between 200 and 300 μM for all samples. The data were collected at 25 °C on Bruker spectrometers equipped with cryoprobes and operating at 500, 600, or 800 MHz. The assignment of backbone TTD–PHD resonances was accomplished using the ABACUS method ([29]) for which standard backbone and ^15N-edited NOESY spectra were collected using ^15N/^13C/^2H- or ^15N/^13C-labeled protein. All 3D experiments were acquired using non-uniform sampling and processed using the software MDDGUI ([30]) or qMDD ([31]). ^15N-Labeled TTD–PHD was used to acquire ^15N T1 and T2 relaxation and ^1H-^15N heteronuclear NOE measurements ([32]) collected using standard Bruker pulse schemes in an interleaved manner. For T1 measurements, the variable delay was set to 0.1, 0.4, 0.8, 1.5, 2.0, 2.5, 3.5, and 5 s. For T2 measurements, the variable delay was set to 16, 32, 48, 64, 80, 96, 128, and 144 ms. The D1 was 3 s for all experiments. Reported values were the average from two measurements. All spectra were processed using NMRPipe ([33]) and analyzed with SPARKY ([34]). […]
trated by the perturbation of I211, I212 and E281 resonances in HSQC spectra of the TTD in a competition assay. […]

[3] = ITC, 2.5 mM BPC into 40 μM TTD, pH 7.4, 5% DMSO, 25 °C

`N=C(N)N1CCC(Cc2ccccc2)CC1` [BPC, 4-benzylpiperidine-1-carboximidamide] was tested, and the Kd (TTD (UHRF1_121–286) [1]; ITC, 2.5 mM BPC into 40 μM TTD, 20 mM Tris pH 7.4, 50 mM NaCl, 5% DMSO, 25 °C, independent-binding site model, read-out: KD) was 46 µM, the “H (enthalpy of binding, ITC)” value (TTD (UHRF1_121–286) [1]; [3]) was -2.6 kcal/mol and the “S (entropy of binding, ITC)” value (TTD (UHRF1_121–286) [1]; [3]) was 11.0 cal/mol∙K. For the same compound, the “calculated ligand efficiency (binding energy per heavy atom)” value (TTD (UHRF1_121–286) [1]; calculated from KD for TTD) was 0.38, the Kd (TTD (UHRF1_121–286) [1]; isolated TTD, estimated using ITC and DSF, read-out: estimated KD) was 50 µM and ~50 µM and the “competition for the TTD groove” value (TTD (UHRF1_121–286) [2]) was “compete directly for the TTD groove”.
